Measured values reported in the NIST ThermoML archive (doi:10.1016/j.fluid.2010.06.007).
± gives the expanded uncertainty stated by the source.

Conditions: 298.15 K; 101.33 kPa; Liquid; Vibrating tube method

| molar volume [m3/mol] | Structure (SMILES) |
| --- | --- |
| 0.0001088 ± 5e-08 | C1CCCCC1 [cyclohexane] |
| 8.174e-05 ± 4e-08 | C1CCOC1 [tetrahydrofuran] |
| 8.071e-05 ± 4e-08 | ClC(Cl)Cl [trichloromethane] |
